Results on 32 molecules are retold here after patent US7576222B2, “Alkynyl-containing tryptophan derivative inhibitors of TACE/matrix metalloproteinase” (priority 2004, dated 2009).

The IC50 is the point on the concentration scale where inhibition reaches its midpoint. By inhibition is commonly meant the change of the read-out against control, counted positive when it falls.

For the first experiment, the target named is T1, catalytic domain of the recombinant TACE protein (Homo sapiens, UniProt P78536).
T1 construct: The catalytic domain of the recombinant TACE protein was expressed and purified; made in house
T1 sequence (P78536 223-474 limits assumed): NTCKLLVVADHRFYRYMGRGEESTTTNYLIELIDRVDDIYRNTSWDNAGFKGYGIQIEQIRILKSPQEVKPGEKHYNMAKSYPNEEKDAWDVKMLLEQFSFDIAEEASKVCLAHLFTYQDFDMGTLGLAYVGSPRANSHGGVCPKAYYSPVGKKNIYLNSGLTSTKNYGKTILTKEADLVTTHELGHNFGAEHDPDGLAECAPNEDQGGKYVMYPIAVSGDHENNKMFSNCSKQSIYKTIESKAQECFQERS
In words: TACE FRET assay using TACE cat. The experiment is classed as biochemical.
Conditions: not given
The protocol:
TACE FRET Assay Using TACE Cat
“K” is the IC50. Generally, “n” and “B” are floated, noting that n (Hill slope) should be close to 1 and B (background offset) to 0.
Pro-TNF-α substrate peptide Abz-[…]-Dpa (AnaSpec, San Jose, Calif., WARC-1) was prepared as a 2 mM stock solution in the TACE assay buffer (50 mM Tris-HCl, pH 7.4, 25 mM NaCl, 4% Glycerol, 0.005% Brij 35). The catalytic domain of the recombinant TACE protein was expressed and purified. The TACE protein (1 ug/ml) was pretreated with the inhibitors at various concentrations for 10 min. at room temperature. The reaction was initiated by the addition of the substrate peptide. […] The initial rate (slope) of the reaction was determined using a fluorescence plate reader (Molecular Devices, Spectra Max Gemini XS).
As to `CC#CCOc1ccc(S(=O)(=O)N[C@@H](Cc2cn(Cc3ccc4c(c3)OCO4)c3ccc(OC)cc23)C(=O)O)cc1` [Example 65, 1-(1,3-benzodioxol-5-ylmethyl)-N-{[4-(but-2-ynyloxy)phenyl]sulfonyl}-5-methoxytryptophan], the 50% inhibitory concentration (IC50) came out at 1500 nM.

For `CC#CCOc1ccc(S(=O)(=O)N[C@@H](Cc2cn(CC(C)C)c3ccc(OC)cc23)C(=O)O)cc1` [Example 67, N-{[4-(but-2-ynyloxy)phenyl]sulfonyl}-1-isobutyl-5-methoxytryptophan], the IC50 is 1230 nM.

Take `CC#CCOc1ccc(S(=O)(=O)N[C@@H](Cc2cn(CCCCC)c3ccc(OC)cc23)C(=O)O)cc1` [Example 68, N-{[4-(but-2-ynyloxy)phenyl]sulfonyl}-5-methoxy-1-pentyltryptophan]: the concentration for half-maximal inhibition (IC50) is 1320 nM.

With `CC#CCOc1ccc(S(=O)(=O)N[C@@H](Cc2cn(CC3CCC3)c3ccc(OC)cc23)C(=O)O)cc1` [Example 69, N-{[4-(but-2-ynyloxy)phenyl]sulfonyl}-1-(cyclobutylmethyl)-5-methoxytryptophan], the IC50 turned out to be 1190 nM.

In the case of `CC#CCOc1ccc(S(=O)(=O)N[C@@H](Cc2cn(CC3CCCCC3)c3ccc(OC)cc23)C(=O)O)cc1` [Example 70, N-{[4-(but-2-ynyloxy)phenyl]sulfonyl}-1-(cyclohexylmethyl)-5-methoxytryptophan], the IC50 came out at 1870 nM.

Consider `CC#CCOc1ccc(S(=O)(=O)N[C@@H](Cc2c(C)n(Cc3ccc(OC)cc3)c3ccc(Cl)cc23)C(=O)O)cc1` [Example 91, N-{[4-(but-2-ynyloxy)phenyl]sulfonyl}-5-chloro-1-(4-methoxybenzyl)-2-methyltryptophan], for which the IC50 amounted to 190 nM.

The experiment is the same for the next values; noted with them: read-out: TACE Inhibition (%).
As for `CC#CCOc1ccc(S(=O)(=O)N[C@@H](Cc2cn(Cc3ccccc3)c3ccc(Cl)cc23)C(=O)O)cc1` [Example 71, 1-benzyl-N-{[4-(but-2-ynyloxy)phenyl]sulfonyl}-5-chlorotryptophan], the inhibition at 1 µM is -1.19%.

In the case of `CC#CCOc1ccc(S(=O)(=O)N[C@@H](Cc2cn(Cc3ccccc3C)c3ccc(Cl)cc23)C(=O)O)cc1` [Example 72, N-{[4-(but-2-ynyloxy)phenyl]sulfonyl}-5-chloro-1-(2-methylbenzyl)tryptophan], the inhibition at 1 µM is 27.5%.

Turning to `CC#CCOc1ccc(S(=O)(=O)N[C@@H](Cc2cn(Cc3cccc(C)c3)c3ccc(Cl)cc23)C(=O)O)cc1` [Example 73, N-{[4-(but-2-ynyloxy)phenyl]sulfonyl}-5-chloro-1-(3-methylbenzyl)tryptophan], the inhibition at 1 µM is 28%.

On to `CC#CCOc1ccc(S(=O)(=O)N[C@@H](Cc2cn(Cc3ccccc3OC)c3ccc(Cl)cc23)C(=O)O)cc1` [Example 74, N-{[4-(but-2-ynyloxy)phenyl]sulfonyl}-5-chloro-1-(2-methoxybenzyl)tryptophan], for which the inhibition at 1 µM is 15%.

As for `CC#CCOc1ccc(S(=O)(=O)N[C@@H](Cc2cn(Cc3cccc(OC)c3)c3ccc(Cl)cc23)C(=O)O)cc1` [Example 75, N-{[4-(but-2-ynyloxy)phenyl]sulfonyl}-5-chloro-1-(3-methoxybenzyl)tryptophan], the inhibition at 1 µM stood at 25%.

Regarding `CC#CCOc1ccc(S(=O)(=O)N[C@@H](Cc2cn(Cc3ccc(OC)cc3)c3ccc(Cl)cc23)C(=O)O)cc1` [Example 76, N-{[4-(but-2-ynyloxy)phenyl]sulfonyl}-5-chloro-1-(4-methoxybenzyl)tryptophan], the inhibition at 1 µM amounted to 18.3%.

For the molecule `CC#CCOc1ccc(S(=O)(=O)N[C@@H](Cc2cn(Cc3ccc(C(F)(F)F)cc3)c3ccc(Cl)cc23)C(=O)O)cc1` [Example 77, N-{[4-(but-2-ynyloxy)phenyl]sulfonyl}-5-chloro-1-[4-(trifluoromethyl)benzyl]tryptophan], the inhibition at 1 µM amounted to 29.8%.

Turning to `CC#CCOc1ccc(S(=O)(=O)N[C@@H](Cc2cn(Cc3ccc(OC(F)(F)F)cc3)c3ccc(Cl)cc23)C(=O)O)cc1` [Example 78, N-{[4-(but-2-ynyloxy)phenyl]sulfonyl}-5-chloro-1-[4-(trifluoromethoxy)benzyl]tryptophan], the inhibition at 1 µM was found to be 7.39%.

As to `CC#CCOc1ccc(S(=O)(=O)N[C@@H](Cc2cn(Cc3ccccc3F)c3ccc(Cl)cc23)C(=O)O)cc1` [Example 79, N-{[4-(but-2-ynyloxy)phenyl]sulfonyl}-5-chloro-1-(2-fluorobenzyl)tryptophan], the inhibition at 1 µM was 8.27%.

Take `CC#CCOc1ccc(S(=O)(=O)N[C@@H](Cc2cn(Cc3cccc(F)c3)c3ccc(Cl)cc23)C(=O)O)cc1` [Example 80, N-{[4-(but-2-ynyloxy)phenyl]sulfonyl}-5-chloro-1-(3-fluorobenzyl)tryptophan]: the inhibition at 1 µM stood at 27.1%.

As to `CC#CCOc1ccc(S(=O)(=O)N[C@@H](Cc2cn(Cc3ccc(Cl)cc3)c3ccc(Cl)cc23)C(=O)O)cc1` [Example 81, N-{[4-(but-2-ynyloxy)phenyl]sulfonyl}-5-chloro-1-(4-chlorobenzyl)tryptophan], the inhibition at 1 µM was 13.9%.

Regarding `CC#CCOc1ccc(S(=O)(=O)N[C@@H](Cc2cn(Cc3ccc(C(C)C)cc3)c3ccc(Cl)cc23)C(=O)O)cc1` [Example 82, N-{[4-(but-2-ynyloxy)phenyl]sulfonyl}-5-chloro-1-(4-isopropylbenzyl)tryptophan], the inhibition at 1 µM was 5.26%.

On to `CC#CCOc1ccc(S(=O)(=O)N[C@@H](Cc2cn(Cc3ccc4c(c3)OCO4)c3ccc(Cl)cc23)C(=O)O)cc1` [Example 83, 1-(1,3-benzodioxol-5-ylmethyl)-N-{[4-(but-2-ynyloxy)phenyl]sulfonyl}-5-chlorotryptophan], for which the inhibition at 1 µM stood at 31.1%.

Regarding `CC#CCOc1ccc(S(=O)(=O)N[C@@H](Cc2cn(CC(C)C)c3ccc(Cl)cc23)C(=O)O)cc1` [Example 85, N-{[4-(but-2-ynyloxy)phenyl]sulfonyl}-5-chloro-1-isobutyltryptophan], the inhibition at 1 µM came to 32.9%.

Regarding `CC#CCOc1ccc(S(=O)(=O)N[C@@H](Cc2cn(CC3CCC3)c3ccc(Cl)cc23)C(=O)O)cc1` [Example 86, N-{[4-(but-2-ynyloxy)phenyl]sulfonyl}-5-chloro-1-(cyclobutylmethyl)tryptophan], the inhibition at 1 µM is 15.7%.

For `CC#CCOc1ccc(S(=O)(=O)N[C@@H](Cc2cn(CC3CCCCC3)c3ccc(Cl)cc23)C(=O)O)cc1` [Example 87, N-{[4-(but-2-ynyloxy)phenyl]sulfonyl}-5-chloro-1-(cyclohexylmethyl)tryptophan], the inhibition at 1 µM stood at 37.4%.

In the case of `CC#CCOc1ccc(S(=O)(=O)N[C@@H](Cc2c(C)n(Cc3ccccc3)c3ccc(Cl)cc23)C(=O)O)cc1` [Example 88, 1-benzyl-N-{[4-(but-2-ynyloxy)phenyl]sulfonyl}-5-chloro-2-methyltryptophan], the inhibition at 1 µM worked out at 62.8%.

With `CC#CCOc1ccc(S(=O)(=O)N[C@@H](Cc2c(C)n(Cc3ccccc3OC)c3ccc(Cl)cc23)C(=O)O)cc1` [Example 89, N-{[4-(but-2-ynyloxy)phenyl]sulfonyl}-5-chloro-1-(2-methoxybenzyl)-2-methyltryptophan], the inhibition at 1 µM stood at 53.6%.

For the molecule `CC#CCOc1ccc(S(=O)(=O)N[C@@H](Cc2c(C)n(Cc3cccc(OC)c3)c3ccc(Cl)cc23)C(=O)O)cc1` [Example 90, N-{[4-(but-2-ynyloxy)phenyl]sulfonyl}-5-chloro-1-(3-methoxybenzyl)-2-methyltryptophan], the inhibition at 1 µM turned out to be 65.2%.

For `CC#CCOc1ccc(S(=O)(=O)N[C@@H](Cc2c(C)n(Cc3ccc(C)cc3)c3ccc(Cl)cc23)C(=O)O)cc1` [Example 92, N-{[4-(but-2-ynyloxy)phenyl]sulfonyl}-5-chloro-2-methyl-1-(4-methylbenzyl)tryptophan], the inhibition at 1 µM was 64%.

Consider `CC#CCOc1ccc(S(=O)(=O)N[C@@H](Cc2c(C)n(Cc3ccc(C(F)(F)F)cc3)c3ccc(Cl)cc23)C(=O)O)cc1` [Example 93, N-{[4-(but-2-ynyloxy)phenyl]sulfonyl}-5-chloro-2-methyl-1-[4-(trifluoromethyl)benzyl]tryptophan], for which the inhibition at 1 µM was found to be 53.8%.

On to `CC#CCOc1ccc(S(=O)(=O)N[C@@H](Cc2c(C)n(Cc3ccc(OC(F)(F)F)cc3)c3ccc(Cl)cc23)C(=O)O)cc1` [Example 94, N-{[4-(but-2-ynyloxy)phenyl]sulfonyl}-5-chloro-2-methyl-1-[4-(trifluoromethoxy)benzyl]tryptophan], for which the inhibition at 1 µM amounted to 47.4%.

On to `CC#CCOc1ccc(S(=O)(=O)N[C@@H](Cc2c(C)n(Cc3ccc(F)cc3)c3ccc(Cl)cc23)C(=O)O)cc1` [Example 95, N-{[4-(but-2-ynyloxy)phenyl]sulfonyl}-5-chloro-1-(4-fluorobenzyl)-2-methyltryptophan], for which the inhibition at 1 µM turned out to be 63.6%.

In the case of `CC#CCOc1ccc(S(=O)(=O)N[C@@H](Cc2c(C)n(Cc3ccc(Cl)cc3)c3ccc(Cl)cc23)C(=O)O)cc1` [Example 96, N-{[4-(but-2-ynyloxy)phenyl]sulfonyl}-5-chloro-1-(4-chlorobenzyl)-2-methyltryptophan], the inhibition at 1 µM came out at 56.5%.

`CC#CCOc1ccc(S(=O)(=O)N[C@@H](Cc2c(C)n(Cc3ccc(C(C)C)cc3)c3ccc(Cl)cc23)C(=O)O)cc1` [Example 97, N-{[4-(but-2-ynyloxy)phenyl]sulfonyl}-5-chloro-1-(4-isopropylbenzyl)-2-methyltryptophan]: the inhibition at 1 µM stood at 21.9%.

On to `CC#CCOc1ccc(S(=O)(=O)N[C@@H](Cc2c(C)n(Cc3ccc(C#N)cc3)c3ccc(Cl)cc23)C(=O)O)cc1` [Example 98, N-{[4-(but-2-ynyloxy)phenyl]sulfonyl}-5-chloro-1-(4-cyanobenzyl)-2-methyltryptophan], for which the inhibition at 1 µM stood at 61%.
